Our source for the TGI values is PubChem BioAssay (NCI).

Some test systems named below: U251 CNS; M14 melanoma; UO-31 renal; M19-MEL melanoma; DMS 114 small cell lung; ACHN renal; 786-0 renal; A498 renal; T-47D breast; HS 578T breast.
What all share (assay): inhibition of tumour cell growth, NCI panel, 48 h

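Results reflect a 48-hour exposure of cells in 96-well plates to compound at five concentrations. TGI: concentration producing complete growth inhibition.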

For `C=C1C(OC(C)=O)CC(OC(C)=O)C2(C)C(OC(C)=O)C(OC(C)=O)C3=C(C)C(OC(=O)/C=C/c4ccccc4)CC(C(OC(C)=O)C12)C3(C)C` (stereo unspecified), the TGI with U251 CNS, in the assay with M14 melanoma, in the assay with UO-31 renal, in the assay with M19-MEL melanoma, in the assay with DMS 114 small cell lung and with ACHN renal was above 100 µM in each case. The TGI in the assay on 786-0 renal and in the assay on A498 renal was above 100 µM each time.
Consider `C=C1C[C@@H]2C[C@@H](C)CC(O)[C@]2(CCCN)C1O` (stereo partly specified), for which the TGI in the assay with U251 CNS, in the assay on M14 melanoma, in the assay on UO-31 renal, in the assay on M19-MEL melanoma, in the assay on DMS 114 small cell lung and with ACHN renal was above 100 µM each time. Besides, the TGI in the assay with 786-0 renal and with A498 renal was above 100 µM throughout.
Regarding `CC1=CCCC2C(C=O)(C1)CC(C)C2(CO)CC/C(=C/CO)CO` (stereo unspecified), the TGI in the assay on U251 CNS is above 100 µM; in the assay with M14 melanoma it was above 100 µM; in the assay with UO-31 renal, 82.8 µM; in the assay on M19-MEL melanoma, above 100 µM; in the assay on DMS 114 small cell lung, above 100 µM; in the assay on ACHN renal, above 100 µM. Besides, the TGI in the assay with 786-0 renal and in the assay on A498 renal was above 100 µM throughout.
As to `O=C1Nc2cc(F)ccc2C1=O`, the TGI in the assay with U251 CNS, in the assay on M14 melanoma, in the assay with UO-31 renal, with M19-MEL melanoma, with DMS 114 small cell lung and with ACHN renal was above 100 µM throughout. In addition, the TGI with 786-0 renal and in the assay with A498 renal was above 100 µM in each case.
As to `O=C[C@@H](CO)O[C@H](C=O)n1cnc2c(=O)[nH]cnc21`, the TGI came to 404 µM with T-47D breast; 2500 µM in the assay with U251 CNS; 1860 µM in the assay with M14 melanoma; 1420 µM in the assay with UO-31 renal; 1540 µM in the assay on M19-MEL melanoma; 202 µM in the assay on DMS 114 small cell lung. For the same molecule, the TGI turned out to be 2050 µM with ACHN renal, 2010 µM in the assay on 786-0 renal, 2390 µM in the assay on HS 578T breast and 2150 µM in the assay on A498 renal.
In the case of `O/N=C/c1ccc(O)c(O)c1`, the TGI with U251 CNS, with M14 melanoma, in the assay with UO-31 renal, with M19-MEL melanoma, with DMS 114 small cell lung and in the assay on ACHN renal was above 100 µM throughout. Also, the TGI with 786-0 renal and in the assay on A498 renal was above 100 µM each time.
Take `COc1cc(/C=N/N=C(\N)NO)c([N+](=O)[O-])cc1OC`: the TGI with U251 CNS was above 100 µM; in the assay on M14 melanoma it was above 100 µM; in the assay with UO-31 renal, above 100 µM; in the assay with M19-MEL melanoma, above 100 µM; with DMS 114 small cell lung, 46.2 µM; in the assay on ACHN renal, 86.5 µM. The TGI with 786-0 renal and in the assay on A498 renal was above 100 µM each time.
For `COc1ccc2c(c1)CCc1c-2n[nH]c1-c1[nH]nc2c1CCc1cc(OC)ccc1-2`, the TGI in the assay with U251 CNS, in the assay with M14 melanoma, in the assay with UO-31 renal, in the assay on M19-MEL melanoma, with DMS 114 small cell lung and in the assay with ACHN renal was above 100 µM throughout. Further, the TGI in the assay on 786-0 renal was 41.1 µM; in the assay with A498 renal, above 100 µM.
On to `Nc1c2ccccc2nc2c(C(=O)Nc3ccc(S(N)(=O)=O)cc3)cccc12`, for which the TGI in the assay on U251 CNS, in the assay on M14 melanoma, in the assay on UO-31 renal, in the assay on M19-MEL melanoma, in the assay on DMS 114 small cell lung and in the assay on ACHN renal was above 100 µM each time. Besides, the TGI with 786-0 renal and with A498 renal was above 100 µM each time.
Turning to `COC(=O)CC[C@]12C[C@]13CC[C@]1(C)C4C(C)C[C@]5(CC(C)C(=O)O5)OC4CC1(C)C3CCC2C(C)(C)O` (stereo partly specified), the TGI with U251 CNS, in the assay with M14 melanoma, in the assay on UO-31 renal, with M19-MEL melanoma, in the assay with DMS 114 small cell lung and in the assay with ACHN renal was above 100 µM each time. Further, the TGI in the assay on 786-0 renal and in the assay with A498 renal was above 100 µM throughout.
Regarding `O=C1NC2C(O)CCCCC2C12CCCCC2` (stereo unspecified), the TGI in the assay on U251 CNS, in the assay with M14 melanoma, with UO-31 renal, in the assay with M19-MEL melanoma, with DMS 114 small cell lung and in the assay with ACHN renal was above 100 µM each time. The TGI in the assay with 786-0 renal and with A498 renal was above 100 µM in each case.
As to `NC(=O)c1ccc(Cl)c([N+](=O)[O-])c1`, the TGI with U251 CNS, in the assay on M14 melanoma, in the assay on UO-31 renal, with M19-MEL melanoma, in the assay with DMS 114 small cell lung and in the assay with ACHN renal was above 100 µM in each case. Also, the TGI in the assay with 786-0 renal and in the assay with A498 renal was above 100 µM throughout.
Consider `c1ccc(OC2=NC3=S(S2)SC(Oc2ccccc2)=N3)cc1`, for which the TGI with U251 CNS amounted to 26.8 µM; in the assay on M14 melanoma, 34.8 µM; in the assay with UO-31 renal, 36.3 µM; in the assay on M19-MEL melanoma it was 34.7 µM; in the assay on DMS 114 small cell lung it was 41 µM; in the assay on ACHN renal, 42.5 µM. In addition, the results for the TGI in the assay with 786-0 renal and in the assay on A498 renal were 30.6 µM and 75 µM, respectively.
